# From ChEMBL document CHEMBL1125524, “Adenosine A1 antagonists. 2. Structure-activity relationships on diuretic activities and protective effects against acute renal failure” (J Med Chem, 1992)
# Tests used:
# Rattus norvegicus [1] = experiment: Serum creatinine concentration measured after intraperitoneal administration of 1 mg/kg of compound to rats(vehicle 4.27+/-0.24); type: functional
# Rattus norvegicus [2] = experiment: Serum creatinine concentration measured after intraperitoneal administration of 0.01 mg/kg of compound to rats(vehicle 4.09+/-0.39); type: functional
# Rattus norvegicus [3] = experiment: Serum creatinine concentration measured after intraperitoneal administration of 0.1 mg/kg of compound to rats(vehicle 5.08+/-0.14); type: functional
# Rattus norvegicus [4] = experiment: Effect on urinary excretion potassium and sodium after oral administration of 0.1 mg/kg to rats(potassium and sodium excretion in control rat is 0.179+/-0.038); type: functional, Urine
# Rattus norvegicus [5] = experiment: Percent inhibition of serum creatinine by the compound given as ratio of Cr value in treated to vehicle treated ones after intraperitoneal administration of 0.01 mg/kg of compound to rats(vehicle 4.09+/-0.39); type: functional; settings: ip
# Rattus norvegicus [6] = experiment: Ratio of urinary excretion value (urinary volume) in treated rats to that in control rats, at a peroral dose of 0.1 mg/Kg; type: functional, Urine
# Rattus norvegicus [7] = experiment: Ratio of urinary excretion value (urinary volume) in treated rats to that in control rats, at a peroral dose of 1.6 mg/Kg; type: functional, Urine
# Rattus norvegicus [8] = experiment: Urea nitrogen concentration measured after intraperitoneal administration of 1 mg/kg of compound to rats(vehicle 171.5+/-7.7); type: functional
# Rattus norvegicus [9] = experiment: Effect on urinary excretion potassium and sodium after oral administration of 0.01 mg/kg to rats(potassium and sodium excretion in control rat is 0.191+/-0.020); type: functional, Urine
# Rattus norvegicus [10] = experiment: Ratio of sodium ion/potassium ion concentration in treated rats to that in control rats, at a peroral dose of 0.01 mg/Kg; type: functional
# Rattus norvegicus [11] = experiment: Ratio of sodium ion/potassium ion concentration in treated rats to that in control rats, at a peroral dose of 0.1 mg/Kg; type: functional
# Rattus norvegicus [12] = experiment: Ratio of sodium ion/potassium ion concentration in treated rats to that in control rats, at a peroral dose of 1.6 mg/Kg; type: functional
# Rattus norvegicus [13] = experiment: Ratio of urinary excretion value (Na+ concentration) in treated rats to that in control rats, at a peroral dose of 0.01 mg/Kg; type: functional, Urine
# Rattus norvegicus [14] = experiment: Ratio of urinary excretion value (Na+ concentration) in treated rats to that in control rats, at a peroral dose of 0.1 mg/Kg; type: functional, Urine
# Rattus norvegicus [15] = experiment: Ratio of urinary excretion value (Na+ concentration) in treated rats to that in control rats, at a peroral dose of 1.6 mg/Kg; type: functional, Urine
# Rattus norvegicus [16] = experiment: Ratio of urinary excretion value (urinary volume) in treated rats to that in control rats, at a peroral dose of 0.01 mg/Kg; type: functional, Urine
# Rattus norvegicus [17] = experiment: Effect on urinary excretion potassium and sodium after oral administration of 1.6 mg/kg to rats(potassium and sodium excretion in control rat is 0.173+/-0.015); type: functional, Urine
# Rattus norvegicus [18] = experiment: Percent inhibition of serum creatinine by the compound given as ratio of Cr value in treated to vehicle treated ones after intraperitoneal administration of 1 mg/kg of compound to rats(vehicle 4.27+/-0.24); type: functional; settings: ip
# Rattus norvegicus [19] = experiment: Percent inhibition of serum creatinine by the compound given as ratio of Cr value in treated to vehicle treated ones after intraperitoneal administration of 0.1 mg/kg of compound to rats(vehicle 5.08+/-0.14); type: functional; settings: ip
# Rattus norvegicus [20] = experiment: Oral diuretic activity was measured after oral administration of 1.6 mg/kg to rats(control volume is 0.93+/-0.03); type: functional, Urine
# Rattus norvegicus [21] = experiment: Oral diuretic activity was measured after oral administration of 0.01 mg/kg to rats(control volume is 1.15+/-0.17); type: functional, Urine
# Rattus norvegicus [22] = experiment: Oral diuretic activity was measured after oral administration of 0.1 mg/kg to rats(control volume is 0.75+/-0.12); type: functional, Urine
# Rattus norvegicus [23] = experiment: Urea nitrogen concentration measured after intraperitoneal administration of 0.01 mg/kg of compound to rats(vehicle 143.9+/-12.2); type: functional
# Rattus norvegicus [24] = experiment: Percent inhibition of Urea nitrogen by the compound given as ratio of UN value in treated to vehicle treated ones after intraperitoneal administration of 1 mg/kg of compound to rats(vehicle 171.5+/-7.7); type: functional; settings: ip
# Rattus norvegicus [25] = experiment: Percent inhibition of Urea nitrogen by the compound given as ratio of UN value in treated to vehicle treated ones after intraperitoneal administration of 0.1 mg/kg of compound to rats(vehicle 165.3+/-4); type: functional; settings: ip
# Rattus norvegicus [26] = experiment: Percent inhibition of Urea nitrogen by the compound given as ratio of UN value in treated to vehicle treated ones after intraperitoneal administration of 0.01 mg/kg of compound to rats(vehicle 143.9+/-12.2); type: functional; settings: ip
# Rattus norvegicus [27] = experiment: Urea nitrogen concentration measured after intraperitoneal administration of 0.1 mg/kg of compound to rats(vehicle 165.3+/-4); type: functional
# Adenosine receptor A1 = target: T1, Adenosine receptor A1 (Cavia porcellus, UniProt P47745)
# T1 sequence (P47745 whole entry): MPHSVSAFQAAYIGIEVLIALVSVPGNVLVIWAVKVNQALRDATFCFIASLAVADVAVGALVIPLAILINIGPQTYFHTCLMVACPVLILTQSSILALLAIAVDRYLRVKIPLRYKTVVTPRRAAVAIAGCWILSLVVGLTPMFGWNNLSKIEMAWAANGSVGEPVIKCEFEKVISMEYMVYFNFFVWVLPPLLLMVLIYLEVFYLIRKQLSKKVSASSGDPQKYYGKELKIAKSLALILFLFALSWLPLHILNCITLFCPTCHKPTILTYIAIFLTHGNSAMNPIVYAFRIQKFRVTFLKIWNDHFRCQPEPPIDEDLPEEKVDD
# Description: Binding affinity against adenosine A1 receptor in guinea pig forebrain membranes using N6-[3H]cyclohexyladenosine as radioligand
# Adenosine A2 receptor = Adenosine A2 receptor (Rattus norvegicus, UniProt P29276+P30543)
# Rattus norvegicus [28] = experiment: Serum creatinine concentration measured after intraperitoneal administration of 1 mg/kg of compound to rats(vehicle 4.82+/-0.17); type: functional
# Rattus norvegicus [29] = experiment: Serum creatinine concentration measured after intraperitoneal administration of 0.01 mg/kg of compound to rats(vehicle 4.50+/-0.24); type: functional
# Rattus norvegicus [30] = experiment: Serum creatinine concentration measured after intraperitoneal administration of 0.1 mg/kg of compound to rats(vehicle 3.62+/-0.23); type: functional
# Rattus norvegicus [31] = experiment: Effect on urinary excretion potassium and sodium after oral administration of 0.4 mg/kg to rats(potassium and sodium excretion in control rat is 0.267+/-0.044); type: functional, Urine
# Rattus norvegicus [32] = experiment: Percent inhibition of serum creatinine by the compound given as ratio of Cr value in treated to vehicle treated ones after intraperitoneal administration of 0.01 mg/kg of compound to rats(vehicle 4.50+/-0.24); type: functional; settings: ip
# Rattus norvegicus [33] = experiment: Percent inhibition of serum creatinine by the compound given as ratio of Cr value in treated to vehicle treated ones after intraperitoneal administration of 0.1 mg/kg of compound to rats(vehicle 3.62+/-0.23); type: functional; settings: ip
# Rattus norvegicus [34] = experiment: Percent inhibition of serum creatinine by the compound given as ratio of Cr value in treated to vehicle treated ones after intraperitoneal administration of 1 mg/kg of compound to rats(vehicle 4.82+/-0.17); type: functional; settings: ip
# Rattus norvegicus [35] = experiment: Ratio of urinary excretion value (urinary volume) in treated rats to that in control rats, at a peroral dose of 0.4 mg/Kg; type: functional, Urine
# Rattus norvegicus [36] = experiment: Urea nitrogen concentration measured after intraperitoneal administration of 1 mg/kg of compound to rats(vehicle 151.5+/-7.4); type: functional
# Rattus norvegicus [37] = experiment: Ratio of sodium ion/potassium ion concentration in treated rats to that in control rats, at a peroral dose of 0.4 mg/Kg; type: functional
# Rattus norvegicus [38] = experiment: Ratio of urinary excretion value (Na+ concentration) in treated rats to that in control rats, at a peroral dose of 0.4 mg/Kg; type: functional, Urine
# Rattus norvegicus [39] = experiment: Effect on urinary excretion potassium and sodium after oral administration of 1.6 mg/kg to rats(potassium and sodium excretion in control rat is 0.169+/-0.012); type: functional, Urine
# Rattus norvegicus [40] = experiment: Oral diuretic activity was measured after oral administration of 0.4 mg/kg to rats(control volume is 1.72+/-0.31); type: functional, Urine
# Rattus norvegicus [41] = experiment: Urea nitrogen concentration measured after intraperitoneal administration of 0.1 mg/kg of compound to rats(vehicle 141.3+/-8.3); type: functional
# Rattus norvegicus [42] = experiment: Oral diuretic activity was measured after oral administration of 1.6 mg/kg to rats(control volume is 0.97+/-0.05); type: functional, Urine
# Rattus norvegicus [43] = experiment: Urea nitrogen concentration measured after intraperitoneal administration of 0.01 mg/kg of compound to rats(vehicle 130.6+/-4.1); type: functional
# Rattus norvegicus [44] = experiment: Percent inhibition of Urea nitrogen by the compound given as ratio of UN value in treated to vehicle treated ones after intraperitoneal administration of 1 mg/kg of compound to rats(vehicle 151.5+/-7.4); type: functional; settings: ip
# Rattus norvegicus [45] = experiment: Percent inhibition of Urea nitrogen by the compound given as ratio of UN value in treated to vehicle treated ones after intraperitoneal administration of 0.01 mg/kg of compound to rats(vehicle 130.6+/-4.1); type: functional; settings: ip
# Rattus norvegicus [46] = experiment: Percent inhibition of Urea nitrogen by the compound given as ratio of UN value in treated to vehicle treated ones after intraperitoneal administration of 0.1 mg/kg of compound to rats(vehicle 141.3+/-8.3); type: functional; settings: ip
smiles,measurement,setting,value
CC(C)Cn1c(=O)n(C)c(=O)c2[nH]c(C3CCCC3)nc21,Cr,Rattus norvegicus [1],2.54 mg/dL
same,Cr,Rattus norvegicus [2],3.08 mg/dL
same,Cr,Rattus norvegicus [3],2.79 mg/dL
same,Na,Rattus norvegicus [4],0.308 m equiv 6hr-1 100g-1
same,inhibition in vivo at 0.01 mg/kg,Rattus norvegicus [5],25%
same,T/C,Rattus norvegicus [6],2.12
same,T/C,Rattus norvegicus [7],2.12
same,UN,Rattus norvegicus [8],109.5 mg/dL
same,Na,Rattus norvegicus [9],0.257 m equiv 6hr-1 100g-1
same,Na+/K+,Rattus norvegicus [10],1.22
same,Na+/K+,Rattus norvegicus [11],1.55
same,Na+/K+,Rattus norvegicus [12],1.57
same,T/C,Rattus norvegicus [13],1.35
same,T/C,Rattus norvegicus [14],1.72
same,T/C,Rattus norvegicus [15],2.19
same,T/C,Rattus norvegicus [16],1.14
same,Na,Rattus norvegicus [17],0.379 m equiv 6hr-1 100g-1
same,inhibition in vivo at 1 mg/kg,Rattus norvegicus [18],40%
same,inhibition in vivo at 0.1 mg/kg,Rattus norvegicus [19],45%
same,Urine volume,Rattus norvegicus [20],1.97 ml 6hr-1 100g-1
same,Urine volume,Rattus norvegicus [21],1.31 ml 6hr-1 100g-1
same,Urine volume,Rattus norvegicus [22],1.59 ml 6hr-1 100g-1
same,UN,Rattus norvegicus [23],106.4 mg/dL
same,inhibition in vivo at 1 mg/kg,Rattus norvegicus [24],36%
same,inhibition in vivo at 0.1 mg/kg,Rattus norvegicus [25],35%
same,inhibition in vivo at 0.01 mg/kg,Rattus norvegicus [26],26%
same,UN,Rattus norvegicus [27],107.3 mg/dL
same,Ki,Adenosine receptor A1,33 nM
same,Ki,Adenosine A2 receptor,880 nM
CCn1c(=O)c2nc(C34CC5CC(CC3C5)C4)[nH]c2n(CC)c1=O,Cr,Rattus norvegicus [28],2.09 mg/dL
same,Cr,Rattus norvegicus [29],2.82 mg/dL
same,Cr,Rattus norvegicus [30],1.44 mg/dL
same,Na,Rattus norvegicus [31],0.356 m equiv 6hr-1 100g-1
same,inhibition in vivo at 0.01 mg/kg,Rattus norvegicus [32],37%
same,inhibition in vivo at 0.1 mg/kg,Rattus norvegicus [33],63%
same,inhibition in vivo at 1 mg/kg,Rattus norvegicus [34],57%
same,T/C,Rattus norvegicus [35],1.33
same,T/C,Rattus norvegicus [7],2.99
same,UN,Rattus norvegicus [36],65.9 mg/dL
same,Na+/K+,Rattus norvegicus [37],1.29
same,Na+/K+,Rattus norvegicus [12],1.97
same,T/C,Rattus norvegicus [38],1.33
same,T/C,Rattus norvegicus [15],2.92
same,Na,Rattus norvegicus [39],0.492 m equiv 6hr-1 100g-1
same,Urine volume,Rattus norvegicus [40],2.29 ml 6hr-1 100g-1
same,UN,Rattus norvegicus [41],44.5 mg/dL
same,Urine volume,Rattus norvegicus [42],2.9 ml 6hr-1 100g-1
same,UN,Rattus norvegicus [43],81.7 mg/dL
same,inhibition in vivo at 1 mg/kg,Rattus norvegicus [44],56%
same,inhibition in vivo at 0.01 mg/kg,Rattus norvegicus [45],37%
same,inhibition in vivo at 0.1 mg/kg,Rattus norvegicus [46],68%
same,Ki,Adenosine A2 receptor,1600 nM
